Values of other authors as cited in US5216013A, “Aralkyl-N-terminal cycloalkoxy-C terminal amino hydroxy β-amino acid derivatives” (G. D. Searle & Co., priority 1992, dated 1993).
Square brackets hold non-standard residues; d marks the D form. Peptide text beside a SMILES is read from it. * marks the point of attachment. Sta = CC(C)C[C@H](N)[C@@H](O)CC(=O)O; Isovaleryl = CC(C)CC(=O)*

Tests used:
hog renin = details: after the injection of hog renin into nephrectomized rats

CC(C)CC(=O)N[C@H](C(=O)N[C@H](C(=O)N[C@@H](CC(C)C)[C@@H](O)CC(=O)N[C@@H](C)C(=O)N[C@@H](CC(C)C)[C@@H](O)CC(=O)O)C(C)C)C(C)C [pepstatin] (Isovaleryl-VV[Sta]A[Sta]-OH)
blood pressure (hog renin): reduce blood pressure in vivo
inhibition of pepsin (in words) (pepsin): inhibitor
inhibition of cathepsin D (in words) (cathepsin D): inhibitor
inhibition of renin (in words) (renin): inhibitor
